Columns and labels:
A673 (Rhabdomyosarcoma) = experiment: 3H-thymidine incorporation cytotoxicity assay, A673; assay type: cell-based, human; details: A673, 24 h
Procedure: (§1) In vitro efficacy screening has been performed using GI147211 and liposomal formulations of GI147211. […] Standard tumor cell-based cytototoxicity assays assessing ^3H-thymidine incorporation were performed.
(§2) Tumor cells were seeded into 96-well tissue culture plates (1×10^4 cells/well)≡4 h prior to experimentation. […] Positive and negative (Tris treated) control groups were included on each assay plate. Tumor cells were then labeled with 0.25 μCi of [methyl-^3H] thymidine and incubated for 42 h under tissue culture conditions (37° C., 5% CO2, 100% relative humidity), except for C6, U251, A673 and B16-F1 cells which were incubated for 24 h. Cells were then lysed, harvested onto glass-fiber filters and unincorporated [methyl-^3H] thymidine removed by filter washing. Filters were processed for scintillation counting and cpm-^3H/well determined. […] Data are presented from multiple sets of experimentation, involving multiple liposomal formulations of GI147211.

[1] = system: B16-F1 (Melanoma, murine); experiment: 3H-thymidine incorporation cytotoxicity assay, B16-F1; assay type: cell-based; details: B16-F1, 24 h
Procedure: as §1, §2

BT-20 (Breast) = experiment: 3H-thymidine incorporation cytotoxicity assay, BT-20; assay type: cell-based, human; details: BT-20, 42 h
Procedure: as §1, §2

[2] = system: DU-145 (prostate carcinoma); experiment: 3H-thymidine incorporation cytotoxicity assay, DU-145; assay type: cell-based, human; details: DU-145, 42 h
Procedure: as §1, §2

ES-2 (ovarian carcinoma) = experiment: 3H-thymidine incorporation cytotoxicity assay, ES-2; assay type: cell-based, human; details: ES-2, 42 h
Procedure: as §1, §2

[3] = system: H460 (Lung, Non-Small Cell); experiment: 3H-thymidine incorporation cytotoxicity assay, H460; assay type: cell-based, human; details: H460, 42 h
Procedure: as §1, §2

HT-29 (Colon) = experiment: 3H-thymidine incorporation cytotoxicity assay, HT-29; assay type: cell-based, human; details: HT-29, 42 h
Procedure: as §1, §2

[4] = system: KB (oralpharyngial carcinoma); experiment: 3H-thymidine incorporation cytotoxicity assay, KB; assay type: cell-based, human; details: 42 h
Procedure: as §1, §2

[5] = system: KBV (oralpharyngial carcinoma, vincristine resistant phenotype); experiment: 3H-thymidine incorporation cytotoxicity assay, KBV; assay type: cell-based, human; details: 42 h
Procedure: as §1, §2

LOX (melanoma) = experiment: 3H-thymidine incorporation cytotoxicity assay, LOX; assay type: cell-based, human; details: 42 h
Procedure: as §1, §2

LS-513 (Cecum) = experiment: 3H-thymidine incorporation cytotoxicity assay, LS-513; assay type: cell-based, human; details: LS-513, 42 h
Procedure: as §1, §2

MCF-7 (Breast) = experiment: 3H-thymidine incorporation cytotoxicity assay, MCF-7; assay type: cell-based, human; details: MCF-7, 42 h
Procedure: as §1, §2

MDA-MB-468 (Breast) = experiment: 3H-thymidine incorporation cytotoxicity assay, MDA-MB-468; assay type: cell-based, human; details: MDA-MB-468, 42 h
Procedure: as §1, §2

[6] = system: SKOV-3 (ovarian carcinoma); experiment: 3H-thymidine incorporation cytotoxicity assay, SKOV-3; assay type: cell-based, human; details: SKOV-3, 42 h
Procedure: as §1, §2

U251 (Glioblastoma) = experiment: 3H-thymidine incorporation cytotoxicity assay, U251; assay type: cell-based, human; details: U251, 24 h
Procedure: as §1, §2

U87-MG (Astrocytoma) = experiment: 3H-thymidine incorporation cytotoxicity assay, U87-MG; assay type: cell-based, human; details: 42 h
Procedure: as §1, §2

U937 (Lymphoma) = experiment: 3H-thymidine incorporation cytotoxicity assay, U937; assay type: cell-based, human; details: U937, 42 h
Procedure: as §1, §2

ES2 Tumor Xenograft = experiment: Repeat dose efficacy at equal toxic doses, ES2 xenograft; details: ES2, 16 mg/kg, days 1, 8 and 15
Procedure: In all the studies performed, subcutaneous tumors implanted on the anterior flank of nude mice were allowed to grow to an established size of 200+/−50 mm^3 prior to dosing drugs.
Drugs were dosed on days 1,8 and 15.

CC[C@@]1(O)C(=O)OCc2c1cc1n(c2=O)Cc2cc3c(CN(C)C)c(O)ccc3nc2-1 [Topotecan]
Median IC50 (A673 (Rhabdomyosarcoma)): 0.00604 µg/mL
Median IC50 [1]: 0.393 µg/mL
Median IC50 (BT-20 (Breast)): 0.0035 µg/mL
Median IC50 [2]: 0.0135 µg/mL
Median IC50 (ES-2 (ovarian carcinoma)): 0.00389 µg/mL
Median IC50 [3]: 0.0209 µg/mL
Median IC50 (HT-29 (Colon)): 0.00415 µg/mL
Median IC50 [4]: 0.0336 µg/mL
Median IC50 [5]: 0.611 µg/mL
Median IC50 (LOX (melanoma)): 0.00492 µg/mL
Median IC50 (LS-513 (Cecum)): 0.016 µg/mL
Median IC50 (MCF-7 (Breast)): 0.23 µg/mL
Median IC50 (MDA-MB-468 (Breast)): 0.0473 µg/mL
Median IC50 [6]: 0.00518 µg/mL
Median IC50 (U251 (Glioblastoma)): 0.0131 µg/mL
Median IC50 (U87-MG (Astrocytoma)): 0.0216 µg/mL
Median IC50 (U937 (Lymphoma)): 0.00903 µg/mL
Cures (ES2 Tumor Xenograft): 0
Log Cell Kill (ES2 Tumor Xenograft): 0.58
Maximum Body Weight loss (ES2 Tumor Xenograft): 16%
T − C (to reach 400% tumor volume increase) (ES2 Tumor Xenograft): 7.4 days
Toxic Deaths (ES2 Tumor Xenograft): 3
